Results taken from patent US11691961B2, “Molecule having pesticidal utility, and compositions, and processes, related thereto” (CORTEVA AGRISCIENCE LLC, priority 2018, dated 2023).

Key:
[1] = system: Green Peach Aphid (Myzus persicae, MYZUPE); experiment: Bioassay 1: Green Peach Aphid foliar spray on cabbage seedlings; type: in vivo; details: for Myzus persicae Mean LC50 PPM: infested cabbage seedlings sprayed until runoff, live aphids counted three days after treatment, Abbott-corrected percent control, mean of replicates; for Myzus persicae % (percent increase in the Mean LC50 required): relative to F1: ((LC50 - LC50 of F1)/LC50 of F1)*100
Experimental: (§1) F1, CE1, CE2, CE3, and CE4 (2 mg each) were each dissolved in 2 mL of acetone/methanol (1:1) solvent, forming stock solutions of 1000 ppm for each test molecule. The stock solutions were diluted 5× with 0.025% Tween® 20 in water to obtain test solutions at 200 ppm for each test molecule. Subsequent 4× dilutions, in water containing 0.025% Tween® 20 and 10% acetone/methanol (1:1), were used to generate the desired concentrations for dose responses. A minimum of 5 concentrations of each test molecule were used for each assay.
Bioassay 1: Green Peach Aphid (Myzus persicae, MYZUPE) (“GPA”).
Test solutions of Formula One and the Comparative Examples, prepared as described above, were tested against GPA using the following procedure.
Cabbage seedlings grown in 3-inch pots, with 2-3 small (3-5 cm) true leaves, were used as test substrate. The seedlings were infested with 20-50 GPA (wingless adult and nymph stages) one day prior to chemical application. Four pots with individual seedlings were used for each treatment. A hand-held aspirator-type sprayer was used for spraying a solution to both sides of […] leaves until runoff. Reference plants (solvent check) were sprayed with the diluent only (0.025% Tween® 20 and 10% acetone/methanol (1:1) in water). Treated plants were held in a holding room for three days at approximately 25° C. and ambient relative humidity (RH) prior to grading. Evaluation was conducted by counting the number of live aphids per plant under a microscope three days after treatment. Percent control was measured using Abbott's correction formula (W. S. Abbott, “A Method of Computing the Effectiveness of an Insecticide” J. Econ. Entomol. 18 (1925), pp. 265-267) as follows:
(§2) [formula] where X=No. of live aphids on solvent check plants and Y=No. of live aphids on treated plants. Bioassay 2: Sweet potato Whitefly (Bemisia tabaci, BEMITA) (“SPW”).

[2] = system: Sweet potato Whitefly (Bemisia tabaci, BEMITA); experiment: Bioassay 2: Sweet potato Whitefly foliar spray on cotton seedlings; type: in vivo; details: for Bemisia tabaci Mean LC50 PPM: cotton seedlings sprayed at crawler emergence, 2-3 instar nymphs counted 7-9 days after treatment, Abbott-corrected percent control, mean of replicates; for Bemisia tabaci % (percent increase in the Mean LC50 required): relative to F1: ((LC50 - LC50 of F1)/LC50 of F1)*100
Experimental: as §1, §2
Test solutions of Formula One and the Comparative Examples, prepared as described above, were tested against SPW using the following procedure.
Cotton seedlings grown in 3-inch pots, pruned so that only one true leaf remained, were used as test substrate. Adult B. tabaci were allowed to colonize these plants and lay eggs for 24 hours after which all adults were removed from the plants using compressed air. Plants were monitored for egg development and, when crawler emergence was underway (>25% emergence based on visual examination using a microscope), the plants were sprayed using the test solutions and methods described above for green peach aphids (GPA). Treated plants were held in a holding room at approximately 25° C. and ambient relative humidity (RH) prior to grading. Evaluation was conducted by counting the number of developed 2-3 instar nymphs per plant under a microscope 7-9 days after treatment. Percent control was measured using Abbott's correction formula (W. S. Abbott, “A Method of Computing the Effectiveness of an Insecticide” J. Econ. Entomol. 18 (1925), pp. 265-267) as follows:
[formula] where X=No. of live nymphs on solvent check plants and Y=No. of live nymphs on treated plants. Analysis of Bioassays

| Structure (SMILES) | Myzus persicae Mean LC50 PPM [1] [PPM] | Bemisia tabaci Mean LC50 PPM [2] [PPM] | Myzus persicae % (percent increase in the Mean LC50 required) [1] [%] | Bemisia tabaci % (percent increase in the Mean LC50 required) [2] [%] |
| --- | --- | --- | --- | --- |
| CC(C(=O)Nc1cn(-c2cccnc2)nc1Cl)S(C)(=O)=O (centres unmarked) [Molecule F1, N-(3-chloro-1-(pyridin-3-yl)-1H-pyrazol-4-yl)-2-(methylsulfonyl)propanamide] | 0.07 | 4.87 |  |  |
| CN(C(=O)CS(C)(=O)=O)c1cn(-c2cccnc2)nc1Cl [CE2, N-(3-chloro-1-(pyridin-3-yl)-1H-pyrazol-4-yl)-N-methyl-2-(methylsulfonyl)acetamide] | 0.52 | 21.01 |  |  |
| CC(C)(C(=O)Nc1cn(-c2cccnc2)nc1Cl)S(C)(=O)=O [CE4, N-(3-chloro-1-(pyridin-3-yl)-1H-pyrazol-4-yl)-2-methyl-2-(methylsulfonyl)propanamide] | 2.17 | 9.72 | 3000 | 100 |
| CS(=O)(=O)CC(=O)Nc1cn(-c2cccnc2)nc1Cl [CE3, N-(3-chloro-1-(pyridin-3-yl)-1H-pyrazol-4-yl)-2-(methylsulfonyl)acetamide] | 0.05 | 25.35 | −29 |  |
| CC(C(=O)N(C)c1cn(-c2cccnc2)nc1Cl)S(C)(=O)=O (centres unmarked) [CE1, N-(3-chloro-1-(pyridin-3-yl)-1H-pyrazol-4-yl)-N-methyl-2-(methylsulfonyl)propanamide] | 0.29 | 5.61 |  | 15 |
